Measurements as given in patent publication US5004758A, “Water soluble camptothecin analogs useful for inhibiting the growth of animal tumor cells” (priority 1988, dated 1991).
Where “and” joins values, the source holds several entries; their conditions need not be identical. Equal values may be shown once. Where a name gives a salt, the structure may show the parent alone. Read-outs that look alike come from different tables or passages of the source.

How the values were obtained:
[1] = tested on: ip B16 melanoma/F10 subline; conditions: mouse, in vivo; for Increase in lifespan (ILS): ip
Text: (§3) Tumors used in these studies--P388 leukemia and its doxorbicin--and mitoxanrone-resistant sublines, L1210 leukemia, B16 melanoma, B16 melanoma/F10 subline, M5076 sarcoma and colon carcinoma 26--are maintained by serial transplantation in syngeneic strains of mice. For the leukemias, these tumors are maintained in DBA/2 mice. The M5076 sarcoma, the B16 melanoma and its F10 subline are maintained in C57B1/6 mice and the colon sarcinoma 26 is maintained in BALB/c mice. The leukemias and the M5076 sarcoma are serially transplanted i.p. as ascites cell suspensions while the B16 melanoma lines and the colon carcinoma 26 are serially transplanted as s.c. solid tumors.
(§4) For therapeutic trials, tumors are aseptically removed from donor mice and prepared as suspensions for implantation ip into test animals. The test animals for the colon carcinoma 26 are female BALB/c mice (20-25 gm). The test animals for the other tumor models are syngeneic female F1 hybrid B6D2F1 mice (C57B1/6 x DBA/2). The inoculum level varies with the type of tumor: P388 leukemia is inoculated at 10^6 cells per mouse, L1210 leukemia at 10^5 or 10^6 cells per mouse, M5076 sarcoma at 5×10^6 cells per mouse. For implantation of the B16 melanoma lines and the colon carcinoma 26, s.c. tumors from donor mice are minced and homogenized in loose fitting teflon glass homogenizer to give a tumor brei. The inoculum levels are 0.5 ml of a 10 percent (w:v) brei of the B16 melanoma lines and 0.5 ml of a 5 percent (w:v) brei of colon carcinoma 26. After tumor inoculation, mice randomized to treatment groups comprised of 6-8 mice each. In each experiment, there are three groups of untreated control mice. Drugs are dissolved or suspended in appropriate aqueous vehicles and given by a variety of routes and schedules of administration over a range of dose levels. Animals are housed in shoebox cages and are monitored daily for mortality for 30 (L1210), 45 (P388) or 60 (B16, M5076, colon 26) days.

[2] = tested on: sc mammary adenocarcinoma 16/c; experiment: in vivo; parameters: species or system mouse; conditions: mouse, in vivo
Text: (§1) The inoculum varies with the tumor.

in vivo = experiment: in vivo; parameters: species or system mouse; conditions: mouse, in vivo, ip
Text: as §1

ip L1210 leukemia = experiment: ip-implanted L1210 leukemia in mice; conditions: mouse, in vivo, ip;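 note: each mouse received 10^6 L1210 cells intraperitoneally, with drug treatment also given by the i.p. route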
Method: For in vivo studies L1210 cells were implanted i.p. (10^6 per mouse)
and drugs were administered i.p. on Days 1 and 5. Increase in lifespan
(ILS) was based on median survival time of groups of 6 mice treated at th
maximally tolerated dose of the drugs.

ip B16 melanoma = conditions: mouse, in vivo
Text: as §3, §4

iv Lewis lung carcinoma = experiment: iv-implanted Lewis lung carcinoma in mice; assay type: in vivo, mouse; conditions: for Increase in lifespan (ILS) / Long-Term Survivors: iv Lewis lung; for Increase in lifespan (ILS): B/ip (Days 1, 5, 9 and 13); for Long-Term Survivors: B/ip
Text: Tumors used in these studies P388 leukemia, L1210 leukemia and Lewis lung carcinoma--are maintained by serial transplantation in syngeneic strains of mice, DBA/2 for the leukemias and C57B1/6 for Lewis lung carcinoma. The leukemias are serially transplanted i.p. as ascites cell suspensions while the Lewis lung carcinoma is serially transplanted as a s.c. solid tumor.
For therapeutic trials, tumors were aseptically removed from donor mice and prepared as suspensions for implantation into test animals which for each tumor are syngeneic female F1 hybrid B6D2F1 mice (C57B1/6×DBA/2). The inoculum level varies with the type of tumor: P388 leukemia is inoculated at 10^6 cells per mouse, L1210 leukemia at 10^5 or 10^6 cells per mouse, and Lewis lung carcinoma at 0.25 ml of a 10 percent (w:v) brei. […] After tumor inoculation, mice are randomized to treatment groups of 6 to 8 mice each. In each experiment, there are three groups of untreated control mice.
Drugs are dissolved or suspended in appropriate aqueous vehicles and given i.p. or i.v. on various treatment schedules over a range of dosage levels. Animals are housed in shoebox cages and monitored daily for mortality for 30 (L1210), 45 (P388) or 60 (Lewis lung) days.

SW-948 = experiment: Cytotoxicity to tumor cells in culture; assay type: cell-based; conditions: Homo sapiens
Method: (§2) The cell lines are used and maintained as monolayer cultures in Minimal Essential Media (Grand Island Biological Co., Grand Island, N.Y.) supplemented with 10% fetal calf serum in a 5% CO2 humidified incubator at 37° C. Various concentrations of a Formula (I) compound under sterile conditions were allowed to react for 2 hours followed by aspiration of medium or were exposed continuously. Plates are incubated for 7 days at 37° C. in a CO2 incubator. Medium was aspirated and cells were fixed and stained with ethanol and Geisma stain. The surviving cell population was determined by scanning the plates with an image analyzer. The percent inhibition of proliferation was determined relative to cells incubated in the absence of drug and the 50 percent inhibitory concentration (IC50) was determined by interpolation.

WIDR = experiment: Cytotoxicity to tumor cells in culture; assay type: cell-based; conditions: Homo sapiens
Method: as §2

HT-29 = experiment: Cytotoxicity to tumor cells in culture; assay type: cell-based; conditions: Homo sapiens
Method: as §2

sc Lewis lung carcinoma = assay type: in vivo, mouse; conditions: mouse, in vivo
Text: as §1

[3] = 2 hr exposure, 7-day incubation, read-out: IC50 2 Hr. Exposure
[4] = 168 h, continuous 7-day exposure, read-out: IC50 Continuous Exposure

## CC[C@@]1(O)C(=O)OCc2c1cc1n(c2=O)Cc2cc3c(CN(C)C)c(O)ccc3nc2-1 [Compound No. 1S, (20 S) 9-Dimethylaminomethyl-10-hydroxycamptothecin Acetate Salt]
[1]
  increases in lifespan at two lower doses: > 40
[1]; 3.2 mg/kg
  Increase in lifespan (ILS): 37%
[1]; 5.4 mg/kg
  Increase in lifespan (ILS): 63%
[1]; 9 mg/kg
  Increase in lifespan (ILS): 68%
[1]; 25 mg/kg
  Increase in lifespan (ILS): toxic
[2]; 5 mg/kg
  Mice without Palpable Tumors: 2/8
  Tumor growth inhibition (TGI): 61%
[2]; 10 mg/kg
  Mice without Palpable Tumors: 5/8
[2]; 20 mg/kg
  Tumor growth inhibition (TGI): toxic
[2]; […]
  Mice without Palpable Tumors: 1/8
[2]; sc
  Increase in Lifespan (ILS) or Inhibition of Tumor Growth (TGI): 96 % TGI
  Tumor growth inhibition (TGI): 73
In vivo
  MTD: 10 mg/kg
Ip L1210 leukemia
  Increase in Lifespan (ILS) or Inhibition of Tumor Growth (TGI): Curative
Ip L1210 leukemia; 3.2 mg/kg
  Increase in lifespan (ILS): 31%
Ip L1210 leukemia; 5.4 mg/kg
  Increase in lifespan (ILS): 81%
Ip L1210 leukemia; 9 mg/kg
  Increase in lifespan (ILS): 138%
Ip L1210 leukemia; 15 mg/kg
  Increase in lifespan (ILS): 219%
  Long-Term Survivors: 2/6
Ip L1210 leukemia; 25 mg/kg
  Increase in lifespan (ILS): toxic
Ip L1210 leukemia; Acetate Salt
  long term survivors at the maximally tolerated doses: 1/6 and 0/6 and 2/6 and 5/6
Ip B16 melanoma
  ILS: 130
Ip B16 melanoma; ip
  Increase in Lifespan (ILS) or Inhibition of Tumor Growth (TGI): 152 % ILS
Ip B16 melanoma; ip, 3.2 mg/kg
  Increase in lifespan (ILS): 43%
Ip B16 melanoma; ip, 5.4 mg/kg
  Increase in lifespan (ILS): 52%
Ip B16 melanoma; ip, 25 mg/kg
  Increase in lifespan (ILS): toxic
Iv Lewis lung carcinoma; iv Lewis Lung Carcinoma, optimal doses and optimal schedules, Acetate Salt
  Increase in Lifespan (ILS) or Inhibition of Tumor Growth (TGI): Curative
Iv Lewis lung carcinoma; 3.2 mg/kg/injection
  Increase in lifespan (ILS): 16%
Iv Lewis lung carcinoma; 5.4 mg/kg/injection
  Increase in lifespan (ILS): 37%
Iv Lewis lung carcinoma; 15 mg/kg/injection
  Increase in lifespan (ILS): > 200%
  Long-Term Survivors: 7/7
Iv Lewis lung carcinoma; 25 mg/kg/injection
  Increase in lifespan (ILS): toxic
Iv Lewis lung carcinoma; 9 mg/kg/injection
  Long-Term Survivors: 1/7
SW-948; SW948, 2 hr exposure, 7-day incubation, read-out: IC50 2 Hr. Exposure
  IC50: 0.26 µg/mL
SW-948; SW948, 168 h, continuous 7-day exposure, read-out: IC50 Continuous Exposure
  IC50: 0.016 µg/mL
WIDR; [3]
  IC50: 2.1 µg/mL
WIDR; [4]
  IC50: 0.025 µg/mL
HT-29; [3]
  IC50: 0.58 µg/mL
HT-29; [4]
  IC50: 0.016 µg/mL
Sc Lewis lung carcinoma
  bioavailability upon oral administration: excellent bioavailability upon oral administration
Sc Lewis lung carcinoma; 3.2 mg/kg
  Tumor growth inhibition (TGI): 31%
Sc Lewis lung carcinoma; 5.4 mg/kg, Acetate Salt
  Mice without Palpable Tumors: 2/8 and 4/8
  Tumor growth inhibition (TGI): 68% and 87%
Sc Lewis lung carcinoma; 5.8 mg/kg
  Tumor growth inhibition (TGI): 51%
Sc Lewis lung carcinoma; 9 mg/kg
  longterm, tumorfree survivors: 2/8
Sc Lewis lung carcinoma; 9 mg/kg, Acetate Salt
  Tumor growth inhibition (TGI): 99% and 93%
Sc Lewis lung carcinoma; 9.7 mg/kg
  Mice without Palpable Tumors: 2/8
  Tumor growth inhibition (TGI): 89%
Sc Lewis lung carcinoma; 15 mg/kg
  Tumor growth inhibition (TGI): 95%
  longterm, tumorfree survivors: 4 of 8
Sc Lewis lung carcinoma; 15 mg/kg, Acetate Salt
  Mice without Palpable Tumors: 8/8 and 3/8
  Tumor growth inhibition (TGI): 100%
  longterm, tumorfree survivors: 4/8
Sc Lewis lung carcinoma; 16 mg/kg
  Mice without Palpable Tumors: 1/8
  Tumor growth inhibition (TGI): 90%
Sc Lewis lung carcinoma; 25 mg/kg
  Mice without Palpable Tumors: 5/8
  Tumor growth inhibition (TGI): toxic
Sc Lewis lung carcinoma; 27 mg/kg
  Mice without Palpable Tumors: 4/8
Sc Lewis lung carcinoma; 45 mg/kg
  Tumor growth inhibition (TGI): toxic
